In data set [1] the test system is MCF7. As to the kind of experiment: Antiproliferative activity against human MCF7 cells assessed as inhibition of cell growth incubated for 72 hrs by MTT assay. In kind it is functional, cell-based. To be noted: MCF7, 72 h. A general note: Formazan colour is commonly taken as a measure of viable cells.
Another data set concerns MDA-MB-231. As to the kind of experiment: Antiproliferative activity against human MDA-MB-231 cells assessed as inhibition of cell growth incubated for 72 hrs by MTT assay. It is filed as functional, cell-based. To be noted: MDA-MB-231, 72 h.
The test system of data set [2] is MCF7. As to the kind of experiment: Anti-estrogenic activity in human MCF7 cells assessed as reduction in GREB1 protein expression at 1.7 to 15 uM measured after 48 hrs by immunoblot analysis. It is filed as functional, cell-based. To be noted: dose 1.7-15 µM. In general terms: In western blotting, separated proteins are transferred to a membrane and probed.
Data set [3] relates to MCF7. Put plainly: Effect on E-cadherin protein expression in human MCF7 cells at 1.7 to 15 uM measured after 48 hrs by immunoblot analysis. It is filed as functional, cell-based. To be noted: dose 1.7-15 µM.
For the next data set, the target named is T1, Aromatase (Homo sapiens, UniProt P11511).
T1 sequence (P11511 whole entry): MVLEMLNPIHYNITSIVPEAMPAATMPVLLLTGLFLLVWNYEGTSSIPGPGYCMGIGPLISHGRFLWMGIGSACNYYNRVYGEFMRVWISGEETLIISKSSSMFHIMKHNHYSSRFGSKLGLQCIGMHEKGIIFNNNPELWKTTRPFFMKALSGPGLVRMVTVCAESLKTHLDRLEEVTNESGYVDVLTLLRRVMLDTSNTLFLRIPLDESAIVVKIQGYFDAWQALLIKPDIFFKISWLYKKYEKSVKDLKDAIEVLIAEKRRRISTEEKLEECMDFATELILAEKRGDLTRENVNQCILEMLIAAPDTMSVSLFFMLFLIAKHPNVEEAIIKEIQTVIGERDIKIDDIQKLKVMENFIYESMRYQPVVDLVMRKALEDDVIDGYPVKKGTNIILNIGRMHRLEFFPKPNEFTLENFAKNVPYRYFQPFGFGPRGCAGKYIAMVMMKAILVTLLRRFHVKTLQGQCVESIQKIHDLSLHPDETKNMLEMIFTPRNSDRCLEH
As to the kind of experiment: Binding affinity to recombinant human CYP19A1 by spectrophotometric titration method. It is filed as ADME. To be noted: recombinant enzyme.

For another data set, the target named is T2, Cytochrome P450 7B1 (Homo sapiens, UniProt O75881).
T2 sequence (O75881 whole entry): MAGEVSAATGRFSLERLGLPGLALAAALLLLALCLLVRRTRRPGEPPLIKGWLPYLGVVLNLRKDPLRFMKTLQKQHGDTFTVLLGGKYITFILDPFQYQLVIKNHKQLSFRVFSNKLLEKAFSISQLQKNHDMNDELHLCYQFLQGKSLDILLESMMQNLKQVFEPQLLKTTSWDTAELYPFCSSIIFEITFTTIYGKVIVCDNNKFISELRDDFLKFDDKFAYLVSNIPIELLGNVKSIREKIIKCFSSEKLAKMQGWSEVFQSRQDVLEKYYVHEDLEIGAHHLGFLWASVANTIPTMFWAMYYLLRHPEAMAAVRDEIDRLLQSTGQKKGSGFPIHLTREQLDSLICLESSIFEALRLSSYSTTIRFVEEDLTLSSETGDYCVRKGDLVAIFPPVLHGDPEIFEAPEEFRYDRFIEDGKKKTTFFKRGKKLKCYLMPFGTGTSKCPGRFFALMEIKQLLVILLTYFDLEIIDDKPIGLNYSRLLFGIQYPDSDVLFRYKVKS
Put plainly: Binding affinity to recombinant human CYP7B1 by spectrophotometric titration method. It is filed as ADME. To be noted: recombinant enzyme.

Data set [4] deals with MCF7. Put plainly: Downregulation of CDK4 protein expression in human MCF7 cells at 1.7 to 15 uM measured after 48 hrs by immunoblot analysis. It is filed as functional, cell-based. To be noted: dose 1.7-15 µM.
Data set [5] deals with MCF7. As to the kind of experiment: Anti-estrogenic activity in human MCF7 cells transfected with luciferase gene under control of estrogen response elements cotransfected with beta-galactosidase assessed as reduction in 17beta-estradiol induced ERalpha protein expression by measuring reduction in luciferase activity measured after 24 hrs. It is filed as functional, cell-based. To be noted: dose 1.7-20 µM.

For the next data set, the target named is Cytochrome P450 7A1 (Homo sapiens, UniProt P22680). Put plainly: Binding affinity to recombinant human CYP7A1 by spectrophotometric titration method. It is filed as ADME. To be noted: recombinant enzyme.
Sequence of Cytochrome P450 7A1 (P22680 whole entry): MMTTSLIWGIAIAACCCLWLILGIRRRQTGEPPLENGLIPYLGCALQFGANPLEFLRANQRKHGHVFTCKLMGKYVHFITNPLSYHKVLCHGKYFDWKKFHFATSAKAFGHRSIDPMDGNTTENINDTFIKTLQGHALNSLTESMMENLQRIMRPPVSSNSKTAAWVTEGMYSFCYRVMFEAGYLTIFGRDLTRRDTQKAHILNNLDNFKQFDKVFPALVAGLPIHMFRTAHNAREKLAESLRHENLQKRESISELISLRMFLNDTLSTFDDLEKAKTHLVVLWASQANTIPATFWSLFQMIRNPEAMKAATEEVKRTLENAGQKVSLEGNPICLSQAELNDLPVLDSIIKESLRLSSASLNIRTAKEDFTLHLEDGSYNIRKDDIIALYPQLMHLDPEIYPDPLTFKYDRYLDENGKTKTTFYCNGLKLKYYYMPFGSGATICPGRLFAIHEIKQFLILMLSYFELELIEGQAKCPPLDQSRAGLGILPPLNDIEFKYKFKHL
The test system of data set [6] is MCF7. Put plainly: Anti-estrogenic activity in human MCF7 cells assessed as reduction in ERalpha protein expression at 1.7 to 15 uM measured after 48 hrs by immunoblot analysis. To be noted: dose 1.7-15 µM. In kind it is functional, cell-based.
In data set [7] the test system is MCF7. As to the kind of experiment: Induction of cell death in human MCF7 cells assessed as accumulation of cleaved PARP level at 1.7 to 15 uM measured after 48 hrs by immunoblot analysis. It is filed as functional, cell-based. To be noted: dose 1.7-15 µM.
The test system of data set [8] is MCF7. As to the kind of experiment: Induction of cell death in human MCF7 cells assessed as reduction in Bcl-2 protein expression measured after 48 hrs by immunoblot analysis. It is filed as functional, cell-based. To be noted: dose 1.7-15 µM.
The next data set deals with T3, Steroid 21-hydroxylase (Homo sapiens, UniProt P08686).
T3 sequence (P08686 whole entry): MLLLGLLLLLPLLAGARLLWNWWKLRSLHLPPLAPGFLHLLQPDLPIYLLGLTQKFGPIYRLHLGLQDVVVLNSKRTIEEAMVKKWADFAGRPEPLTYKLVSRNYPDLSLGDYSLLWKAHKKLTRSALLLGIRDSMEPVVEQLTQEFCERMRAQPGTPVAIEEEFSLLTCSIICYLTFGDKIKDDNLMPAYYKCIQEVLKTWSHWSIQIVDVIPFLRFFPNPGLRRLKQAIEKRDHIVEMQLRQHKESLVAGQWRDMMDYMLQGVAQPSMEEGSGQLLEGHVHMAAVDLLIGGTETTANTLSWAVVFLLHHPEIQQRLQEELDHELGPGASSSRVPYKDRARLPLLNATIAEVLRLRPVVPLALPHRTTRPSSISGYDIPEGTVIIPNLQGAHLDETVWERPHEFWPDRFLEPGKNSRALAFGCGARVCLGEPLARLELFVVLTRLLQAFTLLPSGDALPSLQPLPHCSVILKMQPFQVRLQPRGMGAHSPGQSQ
As to the kind of experiment: Binding affinity to recombinant human CYP21A2 by spectrophotometric titration method. It is filed as ADME. To be noted: recombinant enzyme.

Data set [9] deals with MCF7. As to the kind of experiment: Downregulation of cyclin D1 protein expression in human MCF7 cells at 1.7 to 15 uM measured after 48 hrs by immunoblot analysis. It is filed as functional, cell-based. To be noted: dose 1.7-15 µM.
In data set [10] the test system is MCF7. As to the kind of experiment: Effect on activated AKT protein level in human MCF7 cells at 1.7 to 15 uM measured after 48 hrs by immunoblot analysis. It is filed as functional, cell-based. To be noted: dose 1.7-15 µM.
Data set [11] deals with T4, Steroid 17-alpha-hydroxylase/17,20 lyase (Homo sapiens, UniProt P05093).
T4 sequence (P05093 whole entry): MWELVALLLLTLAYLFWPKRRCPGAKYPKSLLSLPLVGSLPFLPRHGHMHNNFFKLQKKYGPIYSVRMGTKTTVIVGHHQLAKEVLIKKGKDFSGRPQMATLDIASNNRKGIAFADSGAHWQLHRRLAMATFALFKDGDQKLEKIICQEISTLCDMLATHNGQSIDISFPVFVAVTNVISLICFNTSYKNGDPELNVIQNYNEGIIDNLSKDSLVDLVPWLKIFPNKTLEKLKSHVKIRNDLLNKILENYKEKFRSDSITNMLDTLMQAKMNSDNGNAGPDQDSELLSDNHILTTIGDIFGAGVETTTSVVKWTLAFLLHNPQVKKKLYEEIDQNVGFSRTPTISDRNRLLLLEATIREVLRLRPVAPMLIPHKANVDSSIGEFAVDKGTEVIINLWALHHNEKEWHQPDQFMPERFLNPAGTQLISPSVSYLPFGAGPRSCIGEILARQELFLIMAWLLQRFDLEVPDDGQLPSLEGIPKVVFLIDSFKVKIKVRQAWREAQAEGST
Put plainly: Binding affinity to recombinant human CYP17A1 by spectrophotometric titration method. It is filed as ADME. To be noted: recombinant enzyme.

Data set [12] is described as follows: Cytotoxicity against human THP-1 cells assessed as inhibition of cell growth incubated for 72 hrs by MTT assay. In kind it is toxicity, cell-based.

Calls of active or inactive are those of the source. No cut-off for these calls is given here. A value given as a limit tells only on which side of the number the result lay.

As to `CC(=O)O[C@H]1CC[C@@]2(C)C(=CC[C@@H]3[C@@H]2CC[C@]2(C)c4c(cnnc4P(=O)(c4ccccc4)c4ccccc4)C[C@@H]32)C1`, the IC50 in the data set on MCF7 [1] was determined as 14 µM; in the data set with MDA-MB-231, 17.7 µM.

Regarding `C[C@]12CC[C@H](O)CC1=CC[C@@H]1[C@@H]2CC[C@]2(C)c3c(cnnc3P(=O)(Nc3ccccc3)Nc3ccccc3)C[C@@H]12`, the IC50 in the data set on MCF7 [1] was 18.5 µM; in the data set with MDA-MB-231, > 25 µM.

With `C[C@]12CC[C@H](O)C[C@@H]1CC[C@@H]1[C@@H]2CC[C@]2(C)c3c(cnnc3P(=O)(Nc3ccccc3)Nc3ccccc3)C[C@@H]12`, the half-inhibitory concentration (IC50) was 17 µM with MCF7 [1] and > 25 µM with MDA-MB-231.

Consider `CC(C)(C)NP(=O)(NC(C)(C)C)c1nncc2c1[C@@]1(C)CC[C@H]3[C@@H](CC[C@H]4C[C@@H](O)CC[C@@]43C)[C@@H]1C2`, for which the IC50 in the data set on MCF7 [1] and in the data set on MDA-MB-231 was > 25 µM throughout.

With `CC(C)(C)NP(=O)(NC(C)(C)C)c1nncc2c1[C@@]1(C)CC[C@H]3[C@@H](CCC4=CC(=O)CC[C@@]43C)[C@@H]1C2`, the IC50 was 18.6 µM with MCF7 [1] and 20.7 µM with MDA-MB-231.

Regarding `CC(C)(C)NP(=O)(NC(C)(C)C)c1nncc2c1[C@@]1(C)CC[C@H]3[C@@H](CC=C4CC(Cl)CC[C@@]43C)[C@@H]1C2` (some centres not stated), the values for the IC50 with MCF7 [1] and with MDA-MB-231 were 11.1 µM and 15.5 µM, respectively.

As to `C[C@]12CCC(=O)C=C1CC[C@@H]1[C@@H]2CC[C@]2(C)c3c(cnnc3P(=O)(c3ccccc3)c3ccccc3)C[C@@H]12`, the result with MCF7 [2], in the data set on MCF7 [3] and in the data set on MCF7 [10] was inactive. Besides, the IC50 came out at 6.5 µM in the data set with MCF7 [1] and 18.1 µM in the data set with MDA-MB-231. Further, the Activity result on Aromatase was “Not Active”; on Cytochrome P450 7B1 it was “Not Active”; with MCF7 [5], “Dose-Dependent Effect”; at Cytochrome P450 7A1, “Not Active”; in the data set on MCF7 [8], “Dose-Dependent Effect”; on Steroid 21-hydroxylase, “Not Active”. Further, the Activity entry in [11] is “Not Active”. For the same molecule, the outcome with MCF7 [4], with MCF7 [6], in the data set with MCF7 [7] and in the data set with MCF7 [9] was Active.

As to `C[C@]12CC[C@H](O)CC1=CC[C@@H]1[C@@H]2CC[C@]2(C)c3c(cnnc3P(=O)(c3ccccc3)c3ccccc3)C[C@@H]12`, the IC50 with MCF7 [1] turned out to be 17.5 µM; with MDA-MB-231, 7.4 µM.

As to `CC(C)(C)NP(=O)(NC(C)(C)C)c1nncc2c1[C@@]1(C)CC[C@@H]3c4ccc(O)cc4CC[C@H]3[C@@H]1C2`, the IC50 in the data set with MCF7 [1] is 22.6 µM; in the data set on MDA-MB-231 it was > 25 µM.

`COc1cccc2c1C(=O)c1c(O)c3c(c(O)c1C2=O)C[C@@](O)(C(=O)CO)C[C@@H]3O[C@H]1C[C@H](N)[C@H](O)[C@H](C)O1` [DOXORUBICIN]: the half-maximal inhibitory concentration (IC50) in the data set on MCF7 [1] worked out at 0.28 µM; in the data set on MDA-MB-231 it was 0.27 µM. Besides, in data set [12], the IC50 at 72 h came to 0.045 µM.

On to `C[C@]12CC[C@@H]3c4ccc(O)cc4CC[C@H]3[C@@H]1Cc1cnnc(P(=O)(c3ccccc3)c3ccccc3)c12`, for which the IC50 in the data set with MCF7 [1] and with MDA-MB-231 was > 25 µM throughout.

One may read the IC50 as the concentration that inhibits the measured activity by half.
